In BindingDB's records for doi:10.1016/S0960-894X(01)80832-5 (1994):

What follows are compounds tested against Gastrin/cholecystokinin type B receptor (Cavia porcellus) (assay: Inhibitory activity against cholecystokinin-B (CCK-B) receptor in cortex of male hartley guinea pig.).
For Cc1ccccc1[C@@H]1C[C@H](c2ccccc2)N(CC(=O)NC(C)(C)C)C(=O)[C@H](NC(=O)Nc2cccc(C(F)(F)F)c2)C1 [N-tert-Butyl-2-{(3R,5S,7R)-2-oxo-7-phenyl-5-o-tolyl-3-[3-(3-trifluoromethyl-phenyl)-ureido]-azepan-1-yl}-acetamide], the IC50 was 28 nM.
For Cc1cccc(NC(=O)N[C@@H]2C[C@H](c3ccccc3)C[C@H](c3cccc(F)c3)N(CC(=O)NC(C)(C)C)C2=O)c1 [N-tert-Butyl-2-[(3R,5S,7R)-7-(3-fluoro-phenyl)-2-oxo-5-phenyl-3-(3-m-tolyl-ureido)-azepan-1-yl]-acetamide], the IC50 was 31 nM.
For Cc1cccc(NC(=O)N[C@@H]2C[C@H](c3ccccc3C)C[C@H](c3ccccc3)N(CC(=O)NC(C(C)(C)C)C(C)(C)C)C2=O)c1 [N-(1-tert-Butyl-2,2-dimethyl-propyl)-2-[(3R,5S,7R)-2-oxo-7-phenyl-5-o-tolyl-3-(3-m-tolyl-ureido)-azepan-1-yl]-acetamide], the IC50 was 453 nM.
With Cc1cccc(NC(=O)N[C@@H]2C[C@H](c3ccccc3C)C[C@H](c3ccccc3)N(CC(=O)Nc3ccccc3C)C2=O)c1 [2-[(3R,5S,7R)-2-Oxo-7-phenyl-5-o-tolyl-3-(3-m-tolyl-ureido)-azepan-1-yl]-N-o-tolyl-acetamide] the IC50 was 71 nM.
Cc1ccc([C@H]2C[C@@H](c3ccccc3)C[C@@H](NC(=O)Nc3cccc(C)c3)C(=O)N2CC(=O)NC(C)(C)C)cc1 [N-tert-Butyl-2-[(3R,5S,7R)-2-oxo-5-phenyl-7-p-tolyl-3-(3-m-tolyl-ureido)-azepan-1-yl]-acetamide] showed an IC50 of 560 nM.
In the case of Cc1ccccc1[C@@H]1C[C@H](c2ccccc2)N(CC(=O)NC(C)(C)C)C(=O)[C@H](NC(=O)Nc2cccc(F)c2)C1 [N-tert-Butyl-2-{(3R,5S,7R)-3-[3-(3-fluoro-phenyl)-ureido]-2-oxo-7-phenyl-5-o-tolyl-azepan-1-yl}-acetamide], the IC50 is reported as 36 nM.
With COc1ccc(NC(=O)N[C@@H]2C[C@H](c3ccccc3C)C[C@H](c3ccccc3)N(CC(=O)NC(C)(C)C)C2=O)cc1 [N-tert-Butyl-2-{(3R,5S,7R)-3-[3-(4-methoxy-phenyl)-ureido]-2-oxo-7-phenyl-5-o-tolyl-azepan-1-yl}-acetamide] the IC50 was 87 nM.
COc1ccccc1[C@@H]1C[C@H](c2ccccc2)N(CC(=O)NC(C)(C)C)C(=O)[C@H](NC(=O)Nc2cccc(C)c2)C1 [N-tert-Butyl-2-[(3R,5S,7R)-5-(2-methoxy-phenyl)-2-oxo-7-phenyl-3-(3-m-tolyl-ureido)-azepan-1-yl]-acetamide] gave an IC50 of 28 nM.
With CCc1cccc(NC(=O)N[C@@H]2C[C@H](c3ccccc3C)C[C@H](c3ccccc3)N(CC(=O)NC3(C)CCCCC3)C2=O)c1 [2-{(3R,5S,7R)-3-[3-(3-Ethyl-phenyl)-ureido]-2-oxo-7-phenyl-5-o-tolyl-azepan-1-yl}-N-(1-methyl-cyclohexyl)-acetamide] the IC50 was 38 nM.
Compound CCc1ccccc1[C@@H]1C[C@H](c2ccccc2)N(CC(=O)NC(C)(C)C)C(=O)[C@H](NC(=O)Nc2cccc(C)c2)C1 [N-tert-Butyl-2-[(3R,5S,7R)-5-(2-ethyl-phenyl)-2-oxo-7-phenyl-3-(3-m-tolyl-ureido)-azepan-1-yl]-acetamide] has an IC50 of 25 nM.
In the case of Cc1ccccc1[C@@H]1C[C@H](c2ccccc2)N(CC(=O)NC(C)(C)C)C(=O)[C@H](NC(=O)Nc2ccc(Cl)cc2)C1 [N-tert-Butyl-2-{(3R,5S,7R)-3-[3-(4-chloro-phenyl)-ureido]-2-oxo-7-phenyl-5-o-tolyl-azepan-1-yl}-acetamide], the IC50 is reported as 117 nM.
Cc1cccc(NC(=O)N[C@@H]2C[C@H](c3ccccc3)C[C@H](c3cccc(C)c3)N(CC(=O)NC(C)(C)C)C2=O)c1 [N-tert-Butyl-2-[(3R,5S,7R)-2-oxo-5-phenyl-7-m-tolyl-3-(3-m-tolyl-ureido)-azepan-1-yl]-acetamide] gave an IC50 of 141 nM.
With Cc1cccc(NC(=O)N[C@@H]2C[C@H](c3ccc(F)cc3)C[C@H](c3ccccc3)N(CC(=O)NC(C)(C)C)C2=O)c1 [N-tert-Butyl-2-[(3R,5S,7R)-5-(4-fluoro-phenyl)-2-oxo-7-phenyl-3-(3-m-tolyl-ureido)-azepan-1-yl]-acetamide] the IC50 was 65 nM.
With Cc1ccc(NC(=O)CN2C(=O)[C@H](NC(=O)Nc3cccc(C)c3)C[C@H](c3ccccc3C)C[C@@H]2c2ccccc2)cc1 [2-[(3R,5S,7R)-2-Oxo-7-phenyl-5-o-tolyl-3-(3-m-tolyl-ureido)-azepan-1-yl]-N-p-tolyl-acetamide] the IC50 was 40 nM.
Compound Cc1cccc(NC(=O)N[C@@H]2C[C@H](c3ccccc3C)C[C@H](c3ccccc3)N(CC(=O)NC(C)(C)C)C2=O)c1 [N-tert-Butyl-2-[(3R,5S,7R)-2-oxo-7-phenyl-5-o-tolyl-3-(3-m-tolyl-ureido)-azepan-1-yl]-acetamide] has an IC50 of 7.8 nM.
Work on Cc1cccc(NC(=O)N[C@@H]2C[C@H](c3ccccc3C)C[C@H](c3ccccc3)N(CC(=O)Nc3ccccc3Cl)C2=O)c1 [N-(2-Chloro-phenyl)-2-[(3R,5S,7R)-2-oxo-7-phenyl-5-o-tolyl-3-(3-m-tolyl-ureido)-azepan-1-yl]-acetamide] yielded an IC50 of 28 nM.
Cc1ccccc1[C@@H]1C[C@H](c2ccccc2)N(CC(=O)NC(C)(C)C)C(=O)[C@H](NC(=O)Nc2cccc([N+](=O)[O-])c2)C1 [N-tert-Butyl-2-{(3R,5S,7R)-3-[3-(3-nitro-phenyl)-ureido]-2-oxo-7-phenyl-5-o-tolyl-azepan-1-yl}-acetamide] gave an IC50 of 10 nM.
In the case of Cc1cccc(NC(=O)N[C@@H]2C[C@H](c3ccccc3)C[C@H](c3ccc(F)cc3)N(CC(=O)NC(C)(C)C)C2=O)c1 [N-tert-Butyl-2-[(3R,5S,7R)-7-(4-fluoro-phenyl)-2-oxo-5-phenyl-3-(3-m-tolyl-ureido)-azepan-1-yl]-acetamide], the IC50 is reported as 203 nM.
Compound Cc1cccc(NC(=O)N[C@@H]2C[C@H](c3ccccc3C)C[C@H](c3ccccc3)N(CC(=O)NC3(C)CCCCC3)C2=O)c1 [N-(1-Methyl-cyclohexyl)-2-[(3R,5S,7R)-2-oxo-7-phenyl-5-o-tolyl-3-(3-m-tolyl-ureido)-azepan-1-yl]-acetamide] has an IC50 of 134 nM.
Cc1ccc([C@@H]2C[C@H](c3ccccc3)N(CC(=O)NC(C)(C)C)C(=O)[C@H](NC(=O)Nc3cccc(C)c3)C2)cc1 [N-tert-Butyl-2-[(3R,5S,7R)-2-oxo-7-phenyl-5-p-tolyl-3-(3-m-tolyl-ureido)-azepan-1-yl]-acetamide] showed an IC50 of 190 nM.

Target: Gastrin/cholecystokinin type B receptor (Cavia porcellus)
Experiment: as above
Remark: another data set of the same source
With Cc1cccc(NC(=O)N[C@@H]2C[C@H](c3ccccc3C)C[C@H](c3ccccc3)N(CC(=O)NC(C)(C)C)C2=O)c1 [N-tert-Butyl-2-[(3R,5S,7R)-2-oxo-7-phenyl-5-o-tolyl-3-(3-m-tolyl-ureido)-azepan-1-yl]-acetamide] the IC50 was 527 nM.
